Consider 19 molecules from patent US10328053B2 (Gilead Sciences, Inc., priority 2016, dated 2019).

Structures are written as SMILES.

The term EC50 denotes the concentration that produces a half-maximal response.

Data set [1] has as its system HBV AD38 viral particles in HepG2 cell line overexpressing NTCP. Put plainly: HBV DNA Quantification Assay. It is filed as cell-based. The conditions noted are these: Hepatitis B virus, HepG2, 120 h, HBV-infected HepG2-NTCP cells, 5 days incubation, HBV DNA in culture supernatant (QuantiGene 2.0); geometric mean of a minimum of four determinations. The method, then:
HBV DNA Quantification Assay
A HepG2 cell line overexpressing the HBV virus attachment receptor sodium-taurocholate cotransporting polypeptide (NTCP) was grown to confluency in DMEM growth medium, Dulbecco's Modified Eagle Medium without sodium pyruvate (Life Technologies, Rockville, Md.) supplemented with 10% FBS (Thermo Scientific, Waltham, Md.), 1% penicillin/streptomycin (Life Technologies, Rockville, Md.) and 2 mM L-glutamine (Life Technologies, Rockville, Md.) in T175 flasks. Cells were infected with HBV AD38 viral particles (Texcell, Frederick, USA) at 4000 genome equivalents per cell. After allowing viral infection to take place for 4 days, the infected cells were harvested from the flasks by trypsinization, washed twice with OptiMEM (Life Technologies, Rockville, Md.) and re-suspended in DMEM containing 2% FBS and 1% DMSO at a density of 0.25E6 cells/ml. Infected cells were seeded on 384 well collagen coated plates (Greiner, Austria) at a density of 20,000 cells/well containing serially diluted compounds of the present disclosure or DMSO (0.5%) in a final volume of 80 μl. The assay plates were incubated for a period of 5 days and the antiviral activity of the test compounds were assayed by detecting the presence of HBV DNA in the culture supernatant using the QuantiGene™ 2.0 nucleic acid quantification kit (Affymetrix, Santa Clara, Calif.).
The culture supernatant was harvested and treated with lysis buffer containing Proteinase K (Affymetrix, Santa Clara, Calif.). The supernatant was incubated with HBV viral DNA specific probes (Affymetrix, Santa Clara, Calif.) for 30 minutes at 55° C. This was followed by addition of 0.2M NaOH for 30 minutes at room temperature to denature the DNA, followed by addition of Neutralization buffer (Affymetrix, Santa Clara, Calif.). The resulting lysed and neutralized supernatant was then added to QuantiGene™ 2.0 384 well plates coated with capture oligonucleotides and incubated overnight at 55° C. The HBV specific probe set consists of Capture Extender oligonucleotides (CE's) and blocking probes. Following the overnight incubation, the wells were incubated for one hour sequentially with a Pre-Amplifier, Amplifier and Labeled probes conjugated to alkaline phosphatase with a wash step between incubations. After the final wash step, the alkaline phosphatase substrate (Luminol APS5) was added and the resulting luminescence signal was read in an EnVision Multilabel Plate Reader (PerkinElmer, Santa Clara, Calif.). The EC50 values were calculated from the fit of the dose—response curves to a four-parameter equation. All EC50 values represent geometric mean values of a minimum of four determinations.

Data set [2] can be described thus: Hepatic Stability Assay (in vitro half-life method). The format is in vitro ADME. Also on record: dose or concentration left out as unconfirmed. The conditions noted are these: pooled cryopreserved hepatocytes, 37° C., 1×10^6 cells/mL, 0-6 hours, LC-MS/MS, 39.5 hours is the maximum detectable half life, read-out: t½ (converted). Put shortly: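 Pooled cryopreserved hepatocytes (1×10^6 cells/mL) incubated with compound at […] test concentration, 37° C.; samples at 0, 1, 3 and 6 h quantified by LC-MS/MS. Half-life from rate of compound disappearance, scaled to predicted hepatic clearance via well-stirred model.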

For `Cc1c(C(=O)C(=O)NC2(c3c[nH]nn3)CC2)c2n(c1C(=O)Nc1cc(Cl)cc(Cl)c1)CCC2` [Example 102, 7-(2-((1-(1H-1,2,3-triazol-4-yl)cyclopropyl)amino)-2-oxoacetyl)-N-(3,5-dichlorophenyl)-6-methyl-2,3-dihydro-1H-pyrrolizine-5-carboxamide], a half-maximal effect in data set [1] (EC50) was put at 112 nM. Moreover, the half-life in data set [2] was 288 min.

With `Cc1c(C(=O)C(=O)NC23CC(C(N)=O)(C2)C3)c2n(c1C(=O)Nc1ccc(F)c(Cl)c1)CCC2` [Example 106, 7-(2-((3-carbamoylbicyclo[1.1.1]pentan-1-yl)amino)-2-oxoacetyl)-N-(3-chloro-4-fluorophenyl)-6-methyl-2,3-dihydro-1H-pyrrolizine-5-carboxamide], the EC50 in data set [1] was found to be 124 nM.

Regarding `Cc1c(C(=O)C(=O)NC2(c3c[nH]nn3)CC(F)(F)C2)c2n(c1C(=O)Nc1ccc(F)c(F)c1)CCC2` [Example 31, 7-(2-((3,3-difluoro-1-(1H-1,2,3-triazol-4-yl)cyclobutyl)amino)-2-oxoacetyl)-N-(3,4-difluorophenyl)-6-methyl-2,3-dihydro-1H-pyrrolizine-5-carboxamide], in data set [1], a half-maximal effect (EC50) was put at 3.2 nM. In addition, the half-life in data set [2] is 516 min.

Turning to `Cc1c(C(=O)C(=O)NC2(c3c[nH]nn3)CC2)c2n(c1C(=O)Nc1ccc(F)c(Cl)c1)C[C@H](F)C2` [Example 45, (R)-7-(2-((1-(1H-1,2,3-triazol-4-yl)cyclopropyl)amino)-2-oxoacetyl)-N-(3-chloro-4-fluorophenyl)-2-fluoro-6-methyl-2,3-dihydro-1H-pyrrolizine-5-carboxamide], in data set [1], the EC50 is 9.1 nM. Also, the half-life in data set [2] was 798 min.

`Cc1c(C(=O)C(=O)NC2(C(=O)N3CC4(C3)CN(S(C)(=O)=O)C4)CC(F)(F)C2)c2n(c1C(=O)Nc1ccc(F)c(Cl)c1)CCC2` [Example 28, N-(3-chloro-4-fluorophenyl)-7-(2-((3,3-difluoro-1-(6-(methylsulfonyl)-2,6-diazaspiro[3.3]heptane-2-carbonyl)cyclobutyl)amino)-2-oxoacetyl)-6-methyl-2,3-dihydro-1H-pyrrolizine-5-carboxamide] showed a concentration for a half-maximal effect (EC50) in data set [1] of 112 nM. Further, the half-life in data set [2] is 708 min.

`Cc1c(C(=O)C(=O)NC2(c3cnn[nH]3)CC2)c2n(c1C(=O)Nc1cccc(OC(F)(F)F)c1)CCC2` [Example 85, 7-(2-((1-(1H-1,2,3-triazol-5-yl)cyclopropyl)amino)-2-oxoacetyl)-6-methyl-N-(3-(trifluoromethoxy)phenyl)-2,3-dihydro-1H-pyrrolizine-5-carboxamide] displayed an EC50 in data set [1] of 294 nM.

Turning to `CNC(=O)C1(NC(=O)C(=O)c2c(C)c(C(=O)Nc3cc(F)c(F)c(F)c3)n3c2C[C@H]2C[C@H]23)CC(F)(F)C1` [Example 38, (1aR,6aR)-5-(2-((3,3-difluoro-1-(methylcarbamoyl)cyclobutyl)amino)-2-oxoacetyl)-4-methyl-N-(3,4,5-trifluorophenyl)-1,1a,6,6a-tetrahydrocyclopropa[b]pyrrolizine-3-carboxamide], the EC50 in data set [1] was 13 nM. Besides, the half-life in data set [2] was 828 min.

For the molecule `Cc1c(C(=O)C(=O)NC2(c3cnn[nH]3)CC(F)(F)C2)c2n(c1C(=O)Nc1ccc(F)cc1)[C@@H]1C[C@@H]1C2` [Example 100, (1aR,6aR)-5-(2-((3,3-difluoro-1-(1H-1,2,3-triazol-5-yl)cyclobutyl)amino)-2-oxoacetyl)-N-(4-fluorophenyl)-4-methyl-1,1a,6,6a-tetrahydrocyclopropa[b]pyrrolizine-3-carboxamide], the response in data set [1] was half-maximal at 3.7 nM (EC50). Besides, in data set [2], the half-life was 186 min.

In turn, `C#CC1(NC(=O)C(=O)c2c(C)c(C(=O)Nc3ccc(F)c(Cl)c3)n3c2CCC3)CC(F)(F)C1` [Example 60, N-(3-chloro-4-fluorophenyl)-7-(2-((1-ethynyl-3,3-difluorocyclobutyl)amino)-2-oxoacetyl)-6-methyl-2,3-dihydro-1H-pyrrolizine-5-carboxamide] had an EC50 in data set [1] of 1.8 nM. Besides, the half-life in data set [2] was 234 min.

As for `Cc1c(C(=O)C(=O)NC2(C(=O)N3CC(F)C3)CC(F)(F)C2)c2n(c1C(=O)Nc1ccc(F)c(Cl)c1)CCC2` [Example 14, N-(3-chloro-4-fluorophenyl)-7-(2-((3,3-difluoro-1-(3-fluoroazetidine-1-carbonyl)cyclobutyl)amino)-2-oxoacetyl)-6-methyl-2,3-dihydro-1H-pyrrolizine-5-carboxamide], the midpoint of the response in data set [1], the EC50, lay at 8.8 nM. Moreover, the half-life in data set [2] is 126 min.

In the case of `CNC(=O)C(C)(C)NC(=O)C(=O)c1c(C)c(C(=O)Nc2ccc(F)c(C(F)F)c2)n2c1CCC2` [Example 114, N-(3-(difluoromethyl)-4-fluorophenyl)-6-methyl-7-(2-((2-methyl-1-(methylamino)-1-oxopropan-2-yl)amino)-2-oxoacetyl)-2,3-dihydro-1H-pyrrolizine-5-carboxamide], in data set [1], it took 156 nM to reach a half-maximal effect (EC50).

Take `Cc1c(C(=O)C(=O)NC2(c3c[nH]nn3)CC(F)(F)C2)c2n(c1C(=O)Nc1ccc(F)c(Cl)c1)CCC2` [Example 29, N-(3-chloro-4-fluorophenyl)-7-(2-((3,3-difluoro-1-(1H-1,2,3-triazol-4-yl)cyclobutyl)amino)-2-oxoacetyl)-6-methyl-2,3-dihydro-1H-pyrrolizine-5-carboxamide]: the EC50 in data set [1] was 3.1 nM. In addition, the half-life in data set [2] was 966 min.

In turn, `Cc1c(C(=O)C(=O)NC2(C(=O)N3CC4(COC4)C3)CC(F)(F)C2)c2n(c1C(=O)Nc1ccc(F)c(Cl)c1)CCC2` [Example 27, N-(3-chloro-4-fluorophenyl)-7-(2-((3,3-difluoro-1-(2-oxa-6-azaspiro[3.3]heptane-6-carbonyl)cyclobutyl)amino)-2-oxoacetyl)-6-methyl-2,3-dihydro-1H-pyrrolizine-5-carboxamide] yielded an EC50 in data set [1] of 32.3 nM. Also, the half-life in data set [2] was 54 min.

Take `Cc1c(C(=O)C(=O)NC2(c3c[nH]nn3)COC2)c2n(c1C(=O)Nc1ccc(F)c(Cl)c1)CCC2` [Example 88, 7-(2-((3-(1H-1,2,3-triazol-4-yl)oxetan-3-yl)amino)-2-oxoacetyl)-N-(3-chloro-4-fluorophenyl)-6-methyl-2,3-dihydro-1H-pyrrolizine-5-carboxamide]: in data set [1], the EC50 amounted to 8.7 nM. In addition, the half-life in data set [2] was 594 min.

Take `Cc1c(C(=O)C(=O)NC2(c3c[nH]nn3)CC2)c2n(c1C(=O)Nc1ccc(F)c(C(F)F)c1)CCC2` [Example 77, 7-(2-((1-(1H-1,2,3-triazol-4-yl)cyclopropyl)amino)-2-oxoacetyl)-N-(3-(difluoromethyl)-4-fluorophenyl)-6-methyl-2,3-dihydro-1H-pyrrolizine-5-carboxamide]: a half-maximal response in data set [1] (EC50) required 19 nM. Also, in data set [2], the half-life is 1330 min.

`CNC(=O)[C@@H](NC(=O)C(=O)c1c(C)c(C(=O)Nc2ccc(F)c(Cl)c2)n2c1CCC2)C(C)C` [Example 128, (S)—N-(3-chloro-4-fluorophenyl)-6-methyl-7-(2-((3-methyl-1-(methylamino)-1-oxobutan-2-yl)amino)-2-oxoacetyl)-2,3-dihydro-1H-pyrrolizine-5-carboxamide]: the response in data set [1] was half-maximal at 170 nM (EC50).

`CC(C)(C)NC(=O)C(=O)c1c(Cl)c(C(=O)Nc2ccc(F)c(C#N)c2)n2c1CCC2` [Example 1, 7-(2-(tert-Butylamino)-2-oxoacetyl)-6-chloro-N-(3-cyano-4-fluorophenyl)-2,3-dihydro-1H-pyrrolizine-5-carboxamide] gave an EC50 in data set [1] of 27.1 nM.

Molecule `CNC(=O)C(C)(C)NC(=O)C(=O)c1c(C)c(C(=O)Nc2ccc(F)c(Cl)c2)n2c1CCC2` [Example 82, N-(3-chloro-4-fluorophenyl)-6-methyl-7-(2-((2-methyl-1-(methylamino)-1-oxopropan-2-yl)amino)-2-oxoacetyl)-2,3-dihydro-1H-pyrrolizine-5-carboxamide] yielded an EC50 in data set [1] of 133 nM.

In data set [1], `Cc1c(C(=O)C(=O)NC2(c3ccccc3)CC2)c2n(c1C(=O)Nc1cc(F)c(F)c(F)c1)CCC2` [Example 67, 6-methyl-7-(2-oxo-2-((1-phenylcyclopropyl)amino)acetyl)-N-(3,4,5-trifluorophenyl)-2,3-dihydro-1H-pyrrolizine-5-carboxamide] displayed an EC50 of 6.5 nM.
